Laboratory results: patent US20200317784A1, “METHODS AND COMPOSITIONS FOR TREATING CANCER BY MODIFYING MULTIPLE ARMS OF THE IMMUNE SYSTEM” (BioXcel Therapeutics, Inc., priority 2017, published 2020)

Tests used:
[1] = tested on: melanoma; details: melanoma patients; Postow et al. 2015; cited from earlier work
[2] = tested on: Pan02 tumor cells; assay: Anti-tumor efficacy in Pan02 syngeneic mouse model of pancreatic carcinoma; type: in vivo; details: Pan02 s.c., C57BL/6 mice
Source text: Six to eight-week-old female C57BL/6 mice were used in the studies as supplied by Beijing Vital River Laboratory Animal Technology Co., Ltd. Mice received food and water ad libitum. The study protocol and the procedures involving the care and use of animals were reviewed and approved by the Institutional Animal Care and Use Committee (IACUC) to ensure compliance with the regulations of the Association for Assessment and Accreditation of Laboratory Animal Care (AAALAC).
Stock solutions of the PD-1 antagonist at 1 mg/ml concentrations were prepared and kept at 4° C. prior to use. Dosing solutions of the PD-1 antagonist were prepared freshly at a concentration of 1 mg/ml before every administration in sterile phosphate buffered saline (PBS), adjusted to pH 7.0, and administered at a dose of 10 mg/kg intraperitoneally (i.p) per 20 g mouse. […] Talabostat mesylate was obtained from a commercial source, and prepared freshly at a working concentration of 0.1 mg/ml before every administration in sterile phosphate buffered saline (pH 7.0), maintained at 4° C., and administered perorally (p.o.) at a total dose of 20 μg per 20 g mouse.
The tumor cells were routinely sub-cultured twice per week bytrypsin-EDTA treatment. The cells in anexponential growth phase were harvested and counted for tumor inoculation. […] The date of tumor cell inoculation was denoted as Day 0.
The dosing of the agents was started on day 5 after tumor inoculation and continued until Day 28 after tumor inoculation.
Body weight (in grams), and tumor volumes (in mm^3) were measured on Days 5, 8, 12, 15, 19, 22, 26 and 29. […] Tumor volume, expressed in mm^3, was measured with a calliper.
Data related to tumor volume are presented as mean and the standard error of the mean (SEM). Statistical analyses were conducted using Student's t-test. P<0.05 and P<0.001 were considered statistically significant.
% Tumor reduction=(Mean tumor volume^vehicle control−Mean tumor volume^treatmet_group)/Mean tumor volume^vehicle control×100Table 1B. Results

[3] = tested on: Ly6G+ cells (tumoricidal neutrophils); assay: IHC of neutrophil infiltrate in Pan02 tumor samples; details: Day 8; compared to vehicle and PD-1 antagonist alone
Experimental: Tumor samples from the study groups were analyzed for infiltration of immune cells. […] The data was analyzed using GraphPad Prism 5. p<0.05 was statistically significant (*, p<0.05; **, p<0.01; ***, p<0.001).

Compound: ipilimumab: human monoclonal anti-CTLA-4 antibody
- response rate [1]: 11%

Compound: CC(C)[C@H](N)C(=O)N1CCC[C@H]1B(O)O.CS(=O)(=O)O [Talabostat mesylate, [(2R)-1-[(2S)-2-amino-3-methylbutanoyl]pyrrolidin-2-yl]boronic acid; methanesulfonic acid]
- % Tumor Reduction compared to vehicle control ([2]; Day 19 after tumor inoculation): 61.23%
- % Tumor Reduction compared to vehicle control ([2]; Day 22 after tumor inoculation): 58.18%
- % Tumor Reduction compared to vehicle control ([2]; Day 26 after tumor inoculation): 65.42%
- % Tumor Reduction compared to vehicle control ([2]; Day 29 after tumor inoculation): 65.61%
- Ly6G+ cells in tumor (IHC) [3]: significant increase

Compound: nivolumab
- response rate [1]: 32%
